Test results reported in US12473304B2, “Heterocyclic PAD4 inhibitors” (BRISTOL-MYERS SQUIBB COMPANY, priority 2020, dated 2025).

These compounds were tested against human PAD4 (hPAD4) (Homo sapiens (Human), UniProt Q9UM07) (assay: RFMS Human PAD4 Functional Assay 1). Conditions: RFMS assay 1; 5 nM hPAD4, 250 μM BAEE substrate, 50 μM calcium, 37° C.
Type: biochemical
Procedure, shortened: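 Recombinant hPAD4 (5 nM) was preincubated with compound (top 50 μM, 0.5% DMSO) for 30 min at 37 °C, then reacted with 250 μM BAEE for 90 min at 37 °C in pH 7.5 HEPES buffer with 50 μM calcium and 5 μM TPEN. Product was derivatized with phenyl glyoxal and quantified by RapidFire MS.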

Sequence of human PAD4 (hPAD4) (Q9UM07 whole entry): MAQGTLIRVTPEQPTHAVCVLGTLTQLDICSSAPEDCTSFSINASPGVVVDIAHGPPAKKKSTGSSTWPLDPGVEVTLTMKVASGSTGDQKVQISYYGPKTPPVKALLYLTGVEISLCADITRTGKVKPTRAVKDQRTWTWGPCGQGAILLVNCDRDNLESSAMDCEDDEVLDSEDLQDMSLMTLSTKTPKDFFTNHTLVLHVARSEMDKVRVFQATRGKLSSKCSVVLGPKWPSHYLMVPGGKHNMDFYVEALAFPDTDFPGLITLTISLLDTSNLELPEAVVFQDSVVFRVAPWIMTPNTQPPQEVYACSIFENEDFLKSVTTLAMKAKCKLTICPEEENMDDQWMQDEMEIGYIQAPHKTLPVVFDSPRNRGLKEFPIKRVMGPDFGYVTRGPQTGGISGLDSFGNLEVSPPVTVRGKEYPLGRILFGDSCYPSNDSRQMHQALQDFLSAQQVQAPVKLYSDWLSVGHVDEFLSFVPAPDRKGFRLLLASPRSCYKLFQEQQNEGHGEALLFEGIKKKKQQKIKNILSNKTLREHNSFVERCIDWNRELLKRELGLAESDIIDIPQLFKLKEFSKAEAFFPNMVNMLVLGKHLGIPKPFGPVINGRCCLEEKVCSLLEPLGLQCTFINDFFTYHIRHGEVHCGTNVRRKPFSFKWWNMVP

Row | SMILES | IC50 [µM]
1 | Cc1c(-c2cc3cccc(C4CCN(C(=O)[C@H]5CC[C@@H](O)CC5)CC4)c3n2CC2CC2)nn2cc(C(=O)N3CCC[C@@H](N)C3)ccc12 [Example 450, ((R)-3-aminopiperidin-1-yl)(2-(1-(cyclopropylmethyl)-7-(1-((2s,4s)-4-hydroxycyclohexane-1-carbonyl)piperidin-4-yl)-1H-indol-2-yl)-3-methylpyrazolo[1,5-a]pyridin-6-yl)methanone] | 0.05
2 | CC(=O)N1CCC(c2cccc3cc(-c4nn5cc(C(=O)N6C[C@H](N)C[C@@H](F)C6)ccc5c4C)n(CC4CC4)c23)CC1 [Example 452, 1-(4-(2-(6-((3R,5R)-3-amino-5-fluoropiperidine-1-carbonyl)-3-methylpyrazolo[1,5-a]pyridin-2-yl)-1-(cyclopropylmethyl)-1H-indol-7-yl)piperidin-1-yl)ethan-1-one] | 0.03
3 | COCC(=O)N1CCC(c2cccc3cc(-c4nn5cc(C(=O)N6CC7CCC6[C@@H]7N)ccc5c4C)n(CC4CC4)c23)CC1 (stereo partly drawn) [Example 453, 1-(4-(2-(6-((7R)-7-amino-2-azabicyclo[2.2.1]heptane-2-carbonyl)-3-methylpyrazolo[1,5-a]pyridin-2-yl)-1-(cyclopropylmethyl)-1H-indol-7-yl)piperidin-1-yl)-2-methoxyethan-1-one] | 0.01
4 | CO[C@@H](C)C(=O)N1CCC(c2cccc3cc(-c4nn5cc(C(=O)N6CCC[C@@H](N)C6)ccc5c4C)n(CC4CC4)c23)CC1 [Example 454, (S)-1-(4-(2-(6-((R)-3-aminopiperidine-1-carbonyl)-3-methylpyrazolo[1,5-a]pyridin-2-yl)-1-(cyclopropylmethyl)-1H-indol-7-yl)piperidin-1-yl)-2-methoxypropan-1-one] | 0.55
5 | Cc1c(-c2cc3cccc(C4CCN(C(=O)c5cccs5)CC4)c3n2CC2CC2)nn2cc(C(=O)N3CCC[C@@H](N)C3)ccc12 [Example 464, (R)-(3-aminopiperidin-1-yl)(2-(1-(cyclopropylmethyl)-7-(1-(thiophene-2-carbonyl)piperidin-4-yl)-1H-indol-2-yl)-3-methylpyrazolo[1,5-a]pyridin-6-yl)methanone] | 0.18
6 | COC(=O)N1CCC(c2cccc3cc(-c4nn5cc(C(=O)N6C[C@H](N)C[C@@H](F)C6)ccc5c4C)n(CC4CC4)c23)CC1 [Example 469, Methyl 4-(2-(6-((3R,5R)-3-amino-5-fluoropiperidine-1-carbonyl)-3-methylpyrazolo[1,5-a]pyridin-2-yl)-1-(cyclopropylmethyl)-1H-indol-7-yl)piperidine-1-carboxylate] | 0.18
7 | COC(=O)N1CCC(c2cccc3cc(-c4nn5cc(C(=O)N6CC7CCC6[C@@H]7N)ccc5c4C)n(CC4CC4)c23)CC1 (stereo partly drawn) [Example 470, Methyl 4-(2-(6-((7R)-7-amino-2-azabicyclo[2.2.1]heptane-2-carbonyl)-3-methylpyrazolo[1,5-a]pyridin-2-yl)-1-(cyclopropylmethyl)-1H-indol-7-yl)piperidine-1-carboxylate] | 0.01
8 | Cc1c(-c2cc3cccc(C4CCN(C(=O)c5cccs5)CC4)c3n2CC2CC2)nn2cc(C(=O)N3CC4CCC3[C@@H]4N)ccc12 (stereo partly drawn) [Example 475, (4-(2-(6-((7R)-7-Amino-2-azabicyclo[2.2.1]heptane-2-carbonyl)-3-methylpyrazolo[1,5-a]pyridin-2-yl)-1-(cyclopropylmethyl)-1H-indol-7-yl)piperidin-1-yl)(thiophen-2-yl)methanone] | 0.02
9 | CC(=O)N1CCC(c2cccc3cc(-c4nn5cc(C(=O)N6CC7CCC6[C@@H]7N)ccc5c4C)n(CC4CC4)c23)CC1 (stereo partly drawn) [Example 477, 1-(4-(2-(6-((7R)-7-Amino-2-azabicyclo[2.2.1]heptane-2-carbonyl)-3-methylpyrazolo[1,5-a]pyridin-2-yl)-1-(cyclopropylmethyl)-1H-indol-7-yl)piperidin-1-yl)ethan-1-one] | 0.02
10 | COCC(=O)N1CCC(c2cccc3cc(-c4nn5cc(C(=O)N6C[C@H](N)C[C@@H](F)C6)ccc5c4C)n(CC4CC4)c23)CC1 [Example 478, 1-(4-(2-(6-((3R,5R)-3-Amino-5-fluoropiperidine-1-carbonyl)-3-methylpyrazolo[1,5-a]pyridin-2-yl)-1-(cyclopropylmethyl)-1H-indol-7-yl)piperidin-1-yl)-2-methoxyethan-1-one] | 0.13
11 | COCC(=O)N1CCC(c2cc(F)cc3cc(-c4nn5cc(C(=O)N6CCC[C@@H](N)C6)cc(OC)c5c4C)n(CC4CC4)c23)CC1 [Example 480, (R)-1-(4-(2-(6-(3-aminopiperidine-1-carbonyl)-4-methoxy-3-methylpyrazolo[1,5-a]pyridin-2-yl)-1-(cyclopropylmethyl)-5-fluoro-1H-indol-7-yl)piperidin-1-yl)-2-Methoxyethan-1-one] | 0.14

More lines, in order of falling IC50, values ahead:

Row | IC50 [µM] | SMILES
12 | 0.39 | CC(=O)N1CCC(c2cccc3cc(-c4nn5cc(C(=O)N6CCC[C@@H](N)C6)ccc5c4C)n(CC4CC4)c23)CC1 [Example 479, (R)-1-(4-(2-(6-(3-Aminopiperidine-1-carbonyl)-3-methylpyrazolo[1,5-a]pyridin-2-yl)-1-(cyclopropylmethyl)-1H-indol-7-yl)piperidin-1-yl)ethan-1-one]
13 | 0.27 | COCC(=O)N1CCC(c2cccc3cc(-c4nn5cc(C(=O)N6CCC[C@@H](N)C6)ccc5c4C)n(CC4CC4)c23)CC1 [Example 455, (R)-1-(4-(2-(6-(3-aminopiperidine-1-carbonyl)-3-methylpyrazolo[1,5-a]pyridin-2-yl)-1-(cyclopropylmethyl)-1H-indol-7-yl)piperidin-1-yl)-2-methoxyethan-1-one]
14 | 0.14 | CO[C@@H](C)C(=O)N1CCC(c2cccc3cc(-c4nn5cc(C(=O)N6C[C@H](N)C[C@@H](F)C6)ccc5c4C)n(CC4CC4)c23)CC1 [Example 459, (S)-1-(4-(2-(6-((3R,5R)-3-amino-5-fluoropiperidine-1-carbonyl)-3-methylpyrazolo[1,5-a]pyridin-2-yl)-1-(cyclopropylmethyl)-1H-indol-7-yl)piperidin-1-yl)-2-methoxypropan-1-one]
15 | 0.1 | COC(=O)N1CCC(c2cccc3cc(-c4nn5cc(C(=O)N6CCC[C@@H](N)C6)ccc5c4C)n(CC4CC4)c23)CC1 [Example 468, Methyl (R)-4-(2-(6-(3-aminopiperidine-1-carbonyl)-3-methylpyrazolo[1,5-a]pyridin-2-yl)-1-(cyclopropylmethyl)-1H-indol-7-yl)piperidine-1-carboxylate]
16 | 0.09 | Cc1c(-c2cc3cccc(C4CCN(C(=O)[C@@H](C)O)CC4)c3n2CC2CC2)nn2cc(C(=O)N3CCC[C@@H](N)C3)ccc12 [Example 471, (R)-1-(4-(2-(6-((R)-3-aminopiperidine-1-carbonyl)-3-methylpyrazolo[1,5-a]pyridin-2-yl)-1-(cyclopropylmethyl)-1H-indol-7-yl)piperidin-1-yl)-2-hydroxypropan-1-one]
17 | 0.08 | CO[C@H](C)C(=O)N1CCC(c2cccc3cc(-c4nn5cc(C(=O)N6C[C@H](N)C[C@@H](F)C6)ccc5c4C)n(CC4CC4)c23)CC1 [Example 461, (R)-1-(4-(2-(6-((3R,5R)-3-amino-5-fluoropiperidine-1-carbonyl)-3-methylpyrazolo[1,5-a]pyridin-2-yl)-1-(cyclopropylmethyl)-1H-indol-7-yl)piperidin-1-yl)-2-methoxypropan-1-one]
18 | 0.07 | CO[C@H](C)C(=O)N1CCC(c2cccc3cc(-c4nn5cc(C(=O)N6CCC[C@@H](N)C6)ccc5c4C)n(CC4CC4)c23)CC1 [Example 460, (R)-1-(4-(2-(6-((R)-3-aminopiperidine-1-carbonyl)-3-methylpyrazolo[1,5-a]pyridin-2-yl)-1-(cyclopropylmethyl)-1H-indol-7-yl)piperidin-1-yl)-2-methoxypropan-1-one]
19 | 0.07 | Cc1c(-c2cc3cccc(C4CCN(C(=O)c5cccs5)CC4)c3n2CC2CC2)nn2cc(C(=O)N3C[C@H](N)C[C@@H](F)C3)ccc12 [Example 474, ((3R,5R)-3-Amino-5-fluoropiperidin-1-yl)(2-(1-(cyclopropylmethyl)-7-(1-(thiophene-2-carbonyl)piperidin-4-yl)-1H-indol-2-yl)-3-methylpyrazolo[1,5-a]pyridin-6-yl)methanone]
20 | 0.06 | Cc1c(-c2cc3cccc(C4CCN(C(=O)[C@@H](C)O)CC4)c3n2CC2CC2)nn2cc(C(=O)N3C[C@H](N)C[C@@H](F)C3)ccc12 [Example 472, (R)-1-(4-(2-(6-((3R,5R)-3-amino-5-fluoropiperidine-1-carbonyl)-3-methylpyrazolo[1,5-a]pyridin-2-yl)-1-(cyclopropylmethyl)-1H-indol-7-yl)piperidin-1-yl)-2-hydroxypropan-1-one]
21 | 0.05 | Cc1c(-c2cc3cccc(C4CCN(C(=O)[C@@H]5CCC[C@H](O)C5)CC4)c3n2CC2CC2)nn2cc(C(=O)N3C[C@H](N)C[C@@H](F)C3)ccc12 [Example 449, ((3R,5R)-3-amino-5-fluoropiperidin-1-yl)(2-(1-(cyclopropylmethyl)-7-(1-((1R,3S)-3-hydroxycyclohexane-1-carbonyl)piperidin-4-yl)-1H-indol-2-yl)-3-methylpyrazolo[1,5-a]pyridin-6-yl)methanone]
22 | 0.01 | Cc1c(-c2cc3cccc(C4CCN(C(=O)[C@H]5CC[C@H](O)CC5)CC4)c3n2CC2CC2)nn2cc(C(=O)N3C[C@H](N)C[C@@H](F)C3)ccc12 [Example 451, ((3R,5R)-3-amino-5-fluoropiperidin-1-yl)(2-(1-(cyclopropylmethyl)-7-(1-((1r,4r)-4-hydroxycyclohexane-1-carbonyl)piperidin-4-yl)-1H-indol-2-yl)-3-methylpyrazolo[1,5-a]pyridin-6-yl)methanone]
23 | 0.003 | Cc1c(-c2cc3cccc(C4CCN(C(=O)[C@@H](C)O)CC4)c3n2CC2CC2)nn2cc(C(=O)N3CC4CCC3[C@@H]4N)ccc12 (stereo partly drawn) [Example 473, (2R)-1-(4-(2-(6-((7R)-7-Amino-2-azabicyclo[2.2.1]heptane-2-carbonyl)-3-methylpyrazolo[1,5-a]pyridin-2-yl)-1-(cyclopropylmethyl)-1H-indol-7-yl)piperidin-1-yl)-2-hydroxypropan-1-one]
